Reference: patent US20210255193A1, “LYSINE REACTIVE PROBES AND USES THEREOF” (The Scripps Research Institute, priority 2017, published 2021)

Key:
[1] = target: T1, TPMT Thiopurine S-methyltransferase (Homo sapiens, UniProt P51580); test: competitive isoTOP-ABPP; type: binding; set-up: key to isoTOP-ABPP reactivity ratio at lysine P51580_K32: R = MS1 peak area ratio, DMSO (heavy) / compound-treated (light); conditions: 50 uM, in vitro; for R value (DMSO/fragment) for probe 1 labeling: P51580_K32; for R value (DMSO/fragment) for probe 1 labeling / isoTOP-ABPP reactivity ratio at lysine P51580_K32: 231 sol; for isoTOP-ABPP ratio (R) at liganded lysine P51580_K32: sol, 231
T1 construct: isoTOP-ABPP experiments performed in cell lysates (in vitro); endogenous in cells; host or cells: soluble proteome of human cancer cell lines (MDA-MB-231; Ramos and Jurkat also prepared)
T1 sequence (P51580 1-245): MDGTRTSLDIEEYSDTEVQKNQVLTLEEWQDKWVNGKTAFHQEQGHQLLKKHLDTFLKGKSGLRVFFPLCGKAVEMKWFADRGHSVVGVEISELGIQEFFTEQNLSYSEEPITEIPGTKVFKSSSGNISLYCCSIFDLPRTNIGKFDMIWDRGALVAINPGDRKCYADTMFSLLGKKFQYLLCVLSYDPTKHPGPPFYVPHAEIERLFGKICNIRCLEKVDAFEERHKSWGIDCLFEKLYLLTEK
Procedure: (§1) In vitro covalent fragment treatment for isoTOP-ABPP. All compounds were made up as solutions in DMSO (100×) and were used at a final concentration of 50 μM for activated esters and 100 μM for guanidinylating agents. For each profiling sample, 0.5 ml of lysate was treated with 5 μl of the 100× compound stock solution or 5 μl of DMSO. Samples were treated with activated esters for
(§2) STP-alkyne labeling and click chemistry. For concentration-dependent reactivity measurements by isoTOP-ABPP, 0.5 ml proteome aliquots were treated at ambient temperature with 1 mM STP-alkyne 1 (5 μl of 100 mM stock in DMSO) and 0.1 mM STP alkyne 1 (5 μl of 10 mM stock in DMSO), respectively. For competitive isoTOP-ABPP, after in vitro fragment treatment (detailed above), the samples were labeled for 1 h at ambient temperature with 0.1 mM STP-alkyne 1 (5 μl of 10 mM stock in DMSO). Samples were conjugated by copper-mediated azide-alkyne cycloaddition (CuAAC) to either the light (1 mM STP-alkyne or fragment treated) or heavy (0.1 mM STP-alkyne or DMSO treated) TEV tags (10 μl of 5 mM stocks in DMSO, final concentration=100 μM) using tris(2-carboxyethyl)phosphine hydrochloride
(§3) R value calculation and processing. The ratios of light and heavy MS1 peaks for each unique peptide were quantified with a CIMAGE software using default parameters (3 MS1 acquisitions per peak and signal to noise threshold set to 2.5). For reactivity measurements by isoTOP-ABPP, the R value was calculated from the ratio of MS1 peak areas, comparing the 1 mM STP alkyne sample (light TEV tag) with the 0.1 mM STP alkyne sample (heavy TEV tag). For competitive isoTOP-ABPP, the R value was calculated from the ratio of MS1 peak areas, comparing the DMSO treated sample (heavy TEV tag) with the compound treated sample (light TEV tag). […] Ratios for unique peptide entries are calculated for each experiment; overlapping peptides with the same modified lysine (for example, different charge states, MudPIT chromatographic steps or tryptic termini) are grouped together and the median ratio is reported as the final ratio (R). The peptide ratios reported by CIMAGE were further filtered to ensure the removal or correction of low-quality ratios in each individual data set. The quality filters applied were the following: removal of half tryptic peptides; for ratios with high standard deviations from the median (90% of the median or above) the lowest ratio was taken instead of the median; removal of peptides with R=20 and only a single MS2 event triggered during the elution of the parent ion; manual annotation of all the peptides with ratios of 20, removing any peptides with low quality elution profiles that remained after the previous curation steps (only done for competitive isoTOP-ABPP).
(§4) Cross-data processing for fragment screening. For compound treated samples, biological replicates of the same condition were averaged, if the standard deviation was below 60% of the mean; otherwise, for lysines with at least one R value <4 for a particular compound, the lowest value of the ratio set was taken. For lysines, where all R values for a particular compound were ≥4, the average was reported. For peptides containing several possible modified lysines, the lysine with the highest number of quantification events was used for analysis and the remaining, redundant peptides were reported as alternative modification sites. Peptides included in the aggregate dataset (those used for further bioinformatics and statistical analyses) were required to have been quantified in 2 experiments for competitive isoTOP-ABPP. Lysines were categorized as liganded, if they had at least one ratio R≥4 (hit fragments). For liganded lysines with R=20 for all liganding events, lysines were required to have been quantified with R=20 in two separate experiments and were further required to have been quantified with R<20 in one additional experiment.

[2] = target: T2, ABHD10 Abhydrolase domain-containing protein 10, mitochondrial (Homo sapiens, UniProt Q9NUJ1); test: competitive isoTOP-ABPP; type: binding; set-up: key to isoTOP-ABPP reactivity ratio at lysine Q9NUJ1_K185: R = MS1 peak area ratio, DMSO (heavy) / compound-treated (light); capped at 20; conditions: for R value (DMSO/fragment) for probe 1 labeling: Q9NUJ1_K185; for R value (DMSO/fragment) for probe 1 labeling / isoTOP-ABPP reactivity ratio at lysine Q9NUJ1_K185 / isoTOP-ABPP ratio (R) at liganded lysine Q9NUJ1_K185: 50 uM, in vitro; for R value (DMSO/fragment) for probe 1 labeling / isoTOP-ABPP reactivity ratio at lysine Q9NUJ1_K185: 231 sol; for isoTOP-ABPP ratio (R) at liganded lysine Q9NUJ1_K185: sol, 231
T2 construct: endogenous in cells; host or cells: MDA-MB-231 lysate
T2 sequence (Q9NUJ1 53-306): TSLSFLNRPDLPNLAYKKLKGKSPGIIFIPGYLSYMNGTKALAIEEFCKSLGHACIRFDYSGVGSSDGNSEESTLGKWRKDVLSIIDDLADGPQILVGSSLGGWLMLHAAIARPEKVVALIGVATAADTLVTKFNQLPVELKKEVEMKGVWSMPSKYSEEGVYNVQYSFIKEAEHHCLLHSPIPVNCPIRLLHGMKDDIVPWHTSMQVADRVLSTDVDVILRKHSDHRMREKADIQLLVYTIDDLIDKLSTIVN
Procedure: as §1, §2, §3, §4

Row | Structure (SMILES) | isoTOP-ABPP reactivity ratio at lysine P51580_K32 [1] | isoTOP-ABPP reactivity ratio at lysine Q9NUJ1_K185 [2] | isoTOP-ABPP ratio (R) at liganded lysine Q9NUJ1_K185 [2] | further results
1 | O=C(CCc1cn(-c2ccccc2)nc1-c1ccccc1)Oc1c(F)c(F)c(F)c(F)c1F [fragment 19, Pentafluorophenyl 3-(1,3-diphenyl-1H-pyrazol-4-yl)propanoate] | – | – | – | R value (DMSO/fragment) for probe 1 labeling [1]: 1.3; R value (DMSO/fragment) for probe 1 labeling [2]: 1.2
2 | O=C(Oc1c(F)c(F)c(F)c(F)c1F)C(c1ccccc1)c1ccccc1 [fragment 20, Pentafluorophenyl 2,2-diphenylacetate] | – | – | – | R value (DMSO/fragment) for probe 1 labeling [1]: 0.9; R value (DMSO/fragment) for probe 1 labeling [2]: 1.1
3 | O=C(Oc1c(F)c(F)c(F)c(F)c1F)c1cc(C(F)(F)F)cc(C(F)(F)F)c1 [fragment 21, Pentafluorophenyl 3,5-bis(trifluoromethyl)benzoate] | – | – | – | R value (DMSO/fragment) for probe 1 labeling [1]: 4.9; R value (DMSO/fragment) for probe 1 labeling [2]: 4.7
4 | Cn1cc(CC(=O)Oc2c(F)c(F)c(F)c(F)c2F)c2ccccc21 [fragment 22, Pentafluorophenyl 2-(1-methyl-1H-indol-3-yl)acetate] | – | – | – | R value (DMSO/fragment) for probe 1 labeling [1]: 1.3; R value (DMSO/fragment) for probe 1 labeling [2]: 1.5
5 | COc1cc(CCC(=O)Oc2c(F)c(F)c(F)c(F)c2F)cc(OC)c1OC [fragment 23, Pentafluorophenyl 3-(3,4,5-trimethoxyphenyl)propanoate] | – | – | – | R value (DMSO/fragment) for probe 1 labeling [1]: 6.4; R value (DMSO/fragment) for probe 1 labeling [2]: 2.0
6 | O=C(Oc1c(F)c(F)c(F)c(F)c1F)C1CCN(C(=O)OCc2ccccc2)CC1 [fragment 24, 1-Benzyl 4-(pentafluorophenyl) piperidine-1,4-dicarboxylate] | 1.0 | – | – | –
7 | O=C(Oc1c(F)c(F)c(F)c(F)c1F)c1ccc2ccccc2n1 [fragment 25, Pentafluorophenyl quinoline-2-carboxylate] | 2.9 | 1.5 | – | –
8 | O=C(CCc1coc2cc(F)ccc2c1=O)Oc1c(F)c(F)c(F)c(F)c1F [fragment 26, Pentafluorophenyl 3-(7-fluoro-4-oxo-4H-chromen-3-yl)propanoate] | 1.0 | 1.5 | – | –
9 | O=C(CN1C(=O)c2ccccc2C1=O)Oc1c(F)c(F)c(F)c(F)c1F [fragment 27, Pentafluorophenyl 2-(1,3-dioxoisoindolin-2-yl)acetate] | 1.3 | 1.9 | – | –
10 | CCn1cc(C(=O)Oc2c(F)c(F)c(F)c(F)c2F)c(=O)c2ccc(C)nc21 [fragment 28, Pentafluorophenyl 1-ethyl-7-methyl-4-oxo-1,4-dihydro-1,8-naphthyridine-3-carboxylate] | 1.1 | 1.2 | – | –
11 | O=C(CCc1cn(-c2ccccc2)nc1-c1ccccc1)Oc1ccc([N+](=O)[O-])cc1[N+](=O)[O-] [fragment 29, 2,4-Dinitrophenyl 3-(1,3-diphenyl-1H-pyrazol-4-yl)propanoate] | 1.4 | 1.3 | – | –
12 | O=C(Oc1ccc([N+](=O)[O-])cc1[N+](=O)[O-])C(c1ccccc1)c1ccccc1 [fragment 30, 2,4-Dinitrophenyl 2,2-diphenylacetate] | 1.5 | 2.4 | – | –
13 | O=C(Oc1ccc([N+](=O)[O-])cc1[N+](=O)[O-])c1cc(C(F)(F)F)cc(C(F)(F)F)c1 [fragment 31, 2,4-Dinitrophenyl 3,5-bis(trifluoromethyl)benzoate] | 2.5 | 4.4 | – | –
14 | Cn1cc(CC(=O)Oc2ccc([N+](=O)[O-])cc2[N+](=O)[O-])c2ccccc21 [fragment 32, 2,4-Dinitrophenyl 2-(1-methyl-1H-indol-3-yl)acetate] | 2.5 | 1.4 | – | –
15 | COc1cc(CCC(=O)Oc2ccc([N+](=O)[O-])cc2[N+](=O)[O-])cc(OC)c1OC [fragment 33, 2,4-Dinitrophenyl 3-(3,4,5-trimethoxyphenyl)propanoate] | 3.7 | 2.1 | – | –
16 | O=C(Oc1ccc([N+](=O)[O-])cc1[N+](=O)[O-])C1CCN(C(=O)OCc2ccccc2)CC1 [fragment 34, 1-Benzyl 4-(2,4-dinitrophenyl) piperidine-1,4-dicarboxylate] | – | – | 1.5 | isoTOP-ABPP ratio (R) at liganded lysine P51580_K32 [1]: 1.6
17 | O=C(Oc1ccc([N+](=O)[O-])cc1[N+](=O)[O-])c1ccc2ccccc2n1 [fragment 35, 2,4-Dinitrophenyl quinoline-2-carboxylate] | – | – | 1.3 | –
18 | O=C(CCc1coc2cc(F)ccc2c1=O)Oc1ccc([N+](=O)[O-])cc1[N+](=O)[O-] [fragment 36, 2,4-Dinitrophenyl 3-(7-fluoro-4-oxo-4H-chromen-3-yl)propanoate] | – | – | 1.4 | isoTOP-ABPP ratio (R) at liganded lysine P51580_K32 [1]: 3.4
19 | O=C(Oc1ccc([N+](=O)[O-])cc1[N+](=O)[O-])c1ccc(-c2ccccc2)cc1 [fragment 37, 2,4-Dinitrophenyl [1,1′-biphenyl]-4-carboxylate] | – | – | 1.2 | isoTOP-ABPP ratio (R) at liganded lysine P51580_K32 [1]: 1.5
20 | O=C(CC12CC3CC(CC(C3)C1)C2)Oc1ccc([N+](=O)[O-])cc1[N+](=O)[O-] [fragment 38, 2,4-Dinitrophenyl 2-(adamantan-1-yl)acetate] | – | – | 3.3 | isoTOP-ABPP ratio (R) at liganded lysine P51580_K32 [1]: 1.1
21 | O=C(Oc1ccc([N+](=O)[O-])cc1[N+](=O)[O-])c1ccc(Oc2ccccc2)cc1 [fragment 39, 2,4-Dinitrophenyl 4-phenoxybenzoate] | – | – | 1.0 | isoTOP-ABPP ratio (R) at liganded lysine P51580_K32 [1]: 1.0
22 | O=C(Oc1ccc([N+](=O)[O-])cc1[N+](=O)[O-])c1ccccc1Nc1cccc(C(F)(F)F)c1 [fragment 40, 2,4-Dinitrophenyl 2-((3-(trifluoromethyl)phenyl)amino)benzoate] | – | – | 0.9 | isoTOP-ABPP ratio (R) at liganded lysine P51580_K32 [1]: 1.1
23 | COC(=O)NC(=NC(=O)OCC1c2ccccc2-c2ccccc21)n1cccn1 [fragment 49, N-Methoxycarbonyl-N′-9-fluorenylmethoxycarbonyl-pyrazole-1-carboxamidine] | – | – | – | isoTOP-ABPP ratio, lysine Q9NUJ1_K185 ([2]; 100 uM_231_sol_in vitro): 1.5
